In patent US8071744B2, “TRP/HIS exchange and kynurenin induced TRP transport” (Carnegie Institution of Washington, priority 2007, dated 2011):

Assays:
COS-7 cells [1] = test: Ratio imaging of intracellular tryptophan in perfused COS-7 cells expressing FLIPW-CTYT (uptake and exchange); format: cell-based, monkey; settings: for tryptophan export from tryptophan-preloaded cells (counterexchange): extracellular amino acids at 100 μM, DL-HK 200-1000 μM; for effect on the uptake rate of 100 μM L-tryptophan: inhibitors at 5 mM
Protocol: (§1) Tissue culture and transfection. For cytosolic expression in COS-7 cells, the gene encoding CTYT was amplified by PCR with primers encoding unique BamHI and EcoRI restriction sites at the 5′ and 3′ end, respectively, and cloned into BamHI/EcoRI digested peDNA3.1(+) vector (Invitrogen), resulting in plasmid pTK222. COS-7 cells were grown in Dulbecco's modified Eagle's medium (high glucose; DMEM, Gibco) with 10% fetal calf serum and 50 μg; ml penicillin and 50 μg/ml streptomycin (Gibco). Cells were cultured at 37° C. and 5% CO2. For imaging, cells were cultured in 8-well LabTekII German tissue culture glass slides (Nalg Nunc International) and transiently transfected at 50-70% confluence using Lipofectamine 2000 Reagent (Invitrogen) in Opti-MEM I reduced serum medium (Gibco): After transfection, cells were cultured for 16 hours in Opti-MEM followed by 3 hours in DMEM prior to imaging.
Imaging. Ratio imaging was performed on an inverted fluorescence microscope (DM IRE2, Leica) with a Quant EM digital camera (Photometrics) and 20× oil immersion, 63× water immersion lenses (HC PL APO 20×/0.7 or HCX PL APO, Leica, Germany). Dual emission intensity ratios were simultaneously recorded using a DualView with an OI-5-EM filter set (eCFP 480/30; eYFP 535/40; Optical 17 Insights, USA) and Metafluor 6.3r6 software (Molecular Devices, USA). A Sutter Instruments Lambda DG4 provided excitation. Images were acquired within the linear detection range of the camera and exposure times varied between 50 to 200 ms, depending on the expression level, with software binning between 2 and 3. […] Cells were perfused with Tyrode's buffer at flow rates of 1.0 ml/min in a vacuum chamber with a total volume of 0.1 ml. Inhibitors BCH and MeIAB were used at 5 mM concentrations. For determination of the substrate specificity of the tryptophan exchange, all 20 amino acids were tested at 100 μM concentrations.

FLIPW-CTYT = molecular target: T1, FLIPW-CTYT (Escherichia coli, UniProt P0A881); test: In vitro FRET titration of FLIPW-CTYT with tryptophan substrates and kynurenines; format: binding, E. coli; settings: data not shown
T1 construct: Venus (YFP variant); made in house; host or cells: E. coli BL21(DE3)gold
Protocol: (§2) In vitro characterization of FLIPW and FLIPpur sensors. […] The eCFP emission used for the ratio calculation was determined at 485 nm. Protein was diluted to give Venus/eYFP readouts of 20,000 to 30,000 at a manual gain between 70-75. By using the change in FRET ratio upon binding of ligand, affinity constants (Kd) were determined by fitting the titration curves to a single-site-binding isotherm: R=Rapo+(Rsat−Rapo)·(n·[L])/(Kd+[L]) with [L], ligand concentration; n, number of equal binding sites; R, ratio; Rapo, ratio in the absence of ligand; and Rsat, ratio at saturation with ligand. Three independent protein preparations were analyzed and each protein preparation was analyzed in triplicate.

unmodified TrpR = unmodified TrpR (Escherichia coli, UniProt P0A881); settings: cited from earlier work
FLIPW-CTY = molecular target: T2, FLIPW-CTY (Escherichia coli, UniProt P0A881); test: In vitro FRET titration of FLIPW-CTY with tryptophan substrates; format: binding, E. coli
T2 construct: fused on or other part: eCFP at the N-terminus and Venus (YFP variant) at the C-terminus as FRET reporter handles; pRSETb vector leader; Gateway att-derived linkers
Protocol: as §2

COS-7 cells [2] = settings: read-out: apparent KM for combined transport and metabolism; 96-well microplate, Michaelis-Menten fit of FRET increase rate, 0.05-25 μM L-tryptophan
Protocol: as §1

LAT1 = LAT1 (Homo sapiens, UniProt Q01650); settings: oocytes; sum of free, incorporated and degraded tryptophan; cited from earlier work
KB cells = test: FRET imaging of intracellular tryptophan in interferon-gamma treated KB cells; format: cell-based, human; settings: IFNγ 500 U/ml, perfusion with Tyrode's buffer
Protocol: It was also assessed whether affecting the metabolism of tryptophan could be monitored using the FRET nanosensors. The induction of indoleamine 2,3-dioxygenase (IDO) by interferon-gamma in KB cells has been described by Ozaki et al. (Proc. Natl. Acad. Sci. U.S.A. (1988)85: 1242-1246). Indoleamine 2,3-dioxygenase degrades tryptophan to formyl-kynurenine in the cytosol. Accordingly, KB cells were seeded at 10%, 25%, 50% dilution (derived from a suspension that was from ˜90% confluent plate). Interferon gamma (IFNγ) was added at 500 and 1000 U/ml. KB cells used as a control (i.e. no IFNγ) were seeded at 10% dilution only. KB cells were incubated in growth medium (MEM-alpha, 10° A FBS (fetal bovine serum), penicillin/streptomycin) and then in OPTIMEM for 4 days prior to imaging. Cells were transfected (in OPTIMEM) with the pTK222c construct 1 day prior to imaging. IFNγ was maintained during transfection in OPTIMEM. Three hours prior to imaging, the cells were incubated in growth medium (containing IFNγ in the respective cultures). After three hours, the growth medium was exchanged with Tyrode's solution and the cells were kept in incubation chamber until analysis. The cells were perfused with 1 μM, 5 μM, 50 μM, and 100 μM L-tryptophan in Tyrode's solution.

Sequence of LAT1 (Q01650 whole entry, the tested form may be a part): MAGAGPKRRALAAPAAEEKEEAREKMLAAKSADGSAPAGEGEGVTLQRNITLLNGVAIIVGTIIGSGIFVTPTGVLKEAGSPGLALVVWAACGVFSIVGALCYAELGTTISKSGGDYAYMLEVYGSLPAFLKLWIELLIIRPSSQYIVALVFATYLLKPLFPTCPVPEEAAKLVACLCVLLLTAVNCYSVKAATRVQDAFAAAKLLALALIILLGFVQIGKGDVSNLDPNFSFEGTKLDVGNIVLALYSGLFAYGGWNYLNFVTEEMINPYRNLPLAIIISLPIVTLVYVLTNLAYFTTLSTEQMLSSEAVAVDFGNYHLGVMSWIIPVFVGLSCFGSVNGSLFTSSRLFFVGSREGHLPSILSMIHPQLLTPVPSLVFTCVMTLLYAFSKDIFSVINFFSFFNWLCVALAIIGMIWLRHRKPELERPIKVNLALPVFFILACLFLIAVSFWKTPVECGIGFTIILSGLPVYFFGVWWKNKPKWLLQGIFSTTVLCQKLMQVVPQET

Nc1c(O)cccc1C(=O)CC(N)C(=O)O (stereo not drawn) [HK, 3-hydroxy-kynurenine]
tryptophan export from tryptophan-preloaded cells (counterexchange) (COS-7 cells [1]): resulted in reduction of the fluorophore emission ratios in the COS-7 cells, evidencing tryptophan export | FLIPW-CTYT response or interference with tryptophan binding in vitro (FLIPW-CTYT): did not result in a FLIPW-CTYT response or interfere with tryptophan binding to the sensor

Nc1c(O)cccc1C(=O)O [HAA, hydroxy-anthranilic acid]
tryptophan export from tryptophan-preloaded cells (counterexchange) (COS-7 cells [1]): did not result in tryptophan export | FLIPW-CTYT response or interference with tryptophan binding in vitro (FLIPW-CTYT): did not result in a FLIPW-CTYT response or interfere with tryptophan binding to the sensor

CSCC[C@H](N)C(=O)O [methionine]
tryptophan export from tryptophan-preloaded cells (counterexchange) (COS-7 cells [1]): able to promote tryptophan export

CC(C)[C@H](N)C(=O)O [valine]
tryptophan export from tryptophan-preloaded cells (counterexchange) (COS-7 cells [1]): able to promote tryptophan export

N[C@@H](Cc1ccccc1)C(=O)O [phenylalanine]
tryptophan export from tryptophan-preloaded cells (counterexchange) (COS-7 cells [1]): able to promote tryptophan export

NC1(C(=O)O)CC2CCC1C2 (stereo not drawn) [BCH, 2-aminobicyclo-(2,2,1)-heptane-2-carboxylic acid]
effect on the uptake rate of 100 μM L-tryptophan (COS-7 cells [1]): decreased the uptake of tryptophan

CNC(C)(C)C(=O)O
effect on the uptake rate of 100 μM L-tryptophan (COS-7 cells [1]): did not decrease uptake rates

N[C@H](Cc1c[nH]c2ccccc12)C(=O)O [D-tryptophan]
reduced affinity of unmodified TrpR compared to L-tryptophan (unmodified TrpR): 20 fold | concentration for decrease of FRET ratio relative to L-tryptophan (FLIPW-CTY): about 5 fold

N[C@@H](Cc1c[nH]cn1)C(=O)O [histidine, L-histidine]
tryptophan export from tryptophan-preloaded cells (counterexchange) (COS-7 cells [1]): able to promote tryptophan export

N[C@@H](Cc1c[nH]c2ccccc12)C(=O)O [L-tryptophan]
affinity of the cells for combined uptake and metabolism of tryptophan (COS-7 cells [1]; perfusion imaging, Michaelis-Menten fit): 2.6 ± 1.1 µM | Km (COS-7 cells [2]): 0.88 ± 0.27 µM | affinity of LAT1 for tryptophan uptake (LAT1): 21.4 µM

Nc1ccccc1C(=O)CC(N)C(=O)O (stereo not drawn) [K, kynurenine]
tryptophan export from tryptophan-preloaded cells (counterexchange) (COS-7 cells [1]): resulted in reduction of the fluorophore emission ratios in the COS-7 cells, evidencing tryptophan export | FLIPW-CTYT response or interference with tryptophan binding in vitro (FLIPW-CTYT): did not result in a FLIPW-CTYT response or interfere with tryptophan binding to the sensor

N[C@@H](Cc1ccc(O)cc1)C(=O)O [tyrosine]
tryptophan export from tryptophan-preloaded cells (counterexchange) (COS-7 cells [1]): able to promote tryptophan export

CC[C@H](C)[C@H](N)C(=O)O [isoleucine]
tryptophan export from tryptophan-preloaded cells (counterexchange) (COS-7 cells [1]): able to promote tryptophan export

CC(C)C[C@H](N)C(=O)O [leucine]
tryptophan export from tryptophan-preloaded cells (counterexchange) (COS-7 cells [1]): able to promote tryptophan export

B1: IFNγ: cytokine interferon gamma, induces indoleamine 2,3-dioxygenase in KB cells (protein, UniProt P01579 24-161, looked up)
Interferon gamma: QDPYVKEAENLKKYFNAGHSDVADNGTLFLGILKNWKEESDRKIMQSQIVSFYFKLFKNFKDDQSIQKSVETIKEDMNVKFFNSNKKKRDDFEKLTNYSVTDLNVQRKAIHELIQVMAELSPAAKTGKRKRSQMLFRG
effect on intracellular tryptophan concentration (KB cells): lower the intracellular tryptophan concentration
